Target: T1, α4β7 integrin interaction with MadCAM-1 (RPMI8866 cells) (Homo sapiens, UniProt P13612+P26010)
T1 construct: α4β7 integrin expressing cells; endogenous in cells; host or cells: RPMI8866 cells
T1 sequence (P13612 34-1032): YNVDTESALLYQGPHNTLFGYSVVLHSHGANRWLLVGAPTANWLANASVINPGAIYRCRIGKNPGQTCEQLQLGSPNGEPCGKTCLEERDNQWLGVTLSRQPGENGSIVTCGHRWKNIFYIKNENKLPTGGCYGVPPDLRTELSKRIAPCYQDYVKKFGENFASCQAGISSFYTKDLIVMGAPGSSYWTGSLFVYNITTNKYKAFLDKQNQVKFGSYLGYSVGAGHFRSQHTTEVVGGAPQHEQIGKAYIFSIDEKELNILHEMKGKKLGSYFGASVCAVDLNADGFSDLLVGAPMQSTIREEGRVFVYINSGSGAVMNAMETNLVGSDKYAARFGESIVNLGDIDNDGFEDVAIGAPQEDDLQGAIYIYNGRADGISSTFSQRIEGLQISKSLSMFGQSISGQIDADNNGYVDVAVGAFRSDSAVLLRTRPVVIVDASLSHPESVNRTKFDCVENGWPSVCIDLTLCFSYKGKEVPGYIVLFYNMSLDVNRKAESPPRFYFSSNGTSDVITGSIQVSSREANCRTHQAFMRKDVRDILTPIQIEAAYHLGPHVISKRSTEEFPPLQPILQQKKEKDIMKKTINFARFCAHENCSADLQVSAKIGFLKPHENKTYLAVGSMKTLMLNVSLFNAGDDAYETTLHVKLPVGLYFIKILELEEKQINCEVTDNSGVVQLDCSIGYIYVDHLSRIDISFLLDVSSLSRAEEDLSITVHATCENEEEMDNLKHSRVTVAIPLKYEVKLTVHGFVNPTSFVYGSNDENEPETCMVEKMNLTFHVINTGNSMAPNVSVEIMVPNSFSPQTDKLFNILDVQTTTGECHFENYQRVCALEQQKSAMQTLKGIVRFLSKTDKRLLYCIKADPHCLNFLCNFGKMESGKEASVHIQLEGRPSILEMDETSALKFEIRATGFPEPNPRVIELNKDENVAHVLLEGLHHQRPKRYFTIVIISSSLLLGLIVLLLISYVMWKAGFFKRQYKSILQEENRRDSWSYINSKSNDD
T1 sequence (P26010 20-798): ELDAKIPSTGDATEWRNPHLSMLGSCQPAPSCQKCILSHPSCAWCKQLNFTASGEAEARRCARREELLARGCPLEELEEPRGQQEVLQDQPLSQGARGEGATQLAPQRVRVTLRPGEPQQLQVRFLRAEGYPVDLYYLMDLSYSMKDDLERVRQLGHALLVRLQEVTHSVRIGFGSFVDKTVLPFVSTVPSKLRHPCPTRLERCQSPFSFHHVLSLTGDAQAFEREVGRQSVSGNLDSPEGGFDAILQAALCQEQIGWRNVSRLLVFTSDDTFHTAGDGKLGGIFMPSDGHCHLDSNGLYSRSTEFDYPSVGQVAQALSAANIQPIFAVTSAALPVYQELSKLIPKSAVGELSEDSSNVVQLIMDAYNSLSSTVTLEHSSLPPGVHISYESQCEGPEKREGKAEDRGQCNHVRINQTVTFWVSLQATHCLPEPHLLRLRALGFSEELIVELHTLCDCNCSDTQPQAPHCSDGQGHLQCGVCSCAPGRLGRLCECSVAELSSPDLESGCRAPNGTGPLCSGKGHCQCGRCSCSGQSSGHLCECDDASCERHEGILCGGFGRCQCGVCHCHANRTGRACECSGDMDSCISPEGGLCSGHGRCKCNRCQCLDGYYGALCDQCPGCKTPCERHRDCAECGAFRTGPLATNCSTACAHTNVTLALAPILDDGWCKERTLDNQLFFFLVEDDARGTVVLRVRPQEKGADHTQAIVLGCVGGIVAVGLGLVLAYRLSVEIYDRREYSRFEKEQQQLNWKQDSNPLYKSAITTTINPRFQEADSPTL
Experiment: α4β7 Integrin Cell Capture Assay
Format: cell-based
Conditions: capture of α4β7 integrin expressing RPMI8866 cells on recombinant MadCAM-1 extracellular domain-coated plate; 0.5 mM MnCl2
How it was run: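 RPMI8866 cells (0.5×10^6 cells/mL in DMEM + 0.5% FBS + 0.5 mM MnCl2) preincubated with compound 1 h at 37 °C, then allowed to adhere 30 min at 37 °C to plates coated with MAdCAM-1 extracellular domain (1.0 μg/mL). Bound cells fixed with 2% glutaraldehyde, Hoechst-stained, imaged and counted; EC50 from cell count versus concentration.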

Compound | EC50 [nM]
Cc1nc(-c2ccc(C[C@H](NC(=O)c3c(F)cc(N4CCOC[C@@H]4C(F)(F)F)c(F)c3F)C(=O)O)c3c2OCCC3)c(=O)n(C)c1C [Example 121] | 0.758
CC[C@@H](Nc1cc(F)c(C(=O)N[C@@H](Cc2ccc(-c3nc(C)c(C)n(C)c3=O)c3c2CCCO3)C(=O)O)c(F)c1F)C(F)(F)F [Example 122] | 0.271
Cn1cc(C(F)(F)F)nc(-c2ccc(C[C@H](NC(=O)c3c(F)cc(N4CCOC[C@@H]4C(F)(F)F)cc3F)C(=O)O)c3c2OCCC3)c1=O [Example 123] | 0.978
Cn1c(=O)n(-c2ccc(C[C@H](NC(=O)c3c(F)cc(N4CCOC[C@@H]4C(F)(F)F)cc3F)C(=O)O)c3c2OCCC3)c(=O)c2ccncc21 [Example 124] | 0.065
Cc1nc(-c2ccc(C[C@@H](C(=O)O)N(C)C(=O)c3c(F)cc(N4CCOC[C@@H]4C(F)(F)F)cc3F)c3c2OCCC3)c(=O)n(C)c1C [Example 125] | 94.9
CC[C@@H](Nc1cc(F)c(C(=O)N[C@@H](Cc2ccc(-c3c(C)nc(C)n(C)c3=O)c3c2CCCO3)C(=O)O)c(F)c1F)C(F)(F)F [Example 126] | 0.379
Cn1c2c(nc(-c3ccc(C[C@H](NC(=O)c4c(F)cc(N5CCOC[C@@H]5C(F)(F)F)cc4F)C(=O)O)c4c3OCCC4)c1=O)CCCC2 [Example 127] | 0.455
Cc1cc(N2CCOC[C@@H]2C(F)(F)F)cc(F)c1C(=O)N[C@@H](Cc1ccc(-c2cnc(C)n(C)c2=O)c2c1CCCO2)C(=O)O [Example 128] | 0.446
Cc1cc(N2CCOC[C@@H]2C(F)(F)F)cc(F)c1C(=O)N[C@@H](Cc1ccc(-c2c(C)nc(C)n(C)c2=O)c2c1CCCO2)C(=O)O [Example 129] | 0.189
Cc1nc(C)n(C)c(=O)c1-c1ccc(C[C@H](NC(=O)c2c(F)cc(N3CCOC[C@@H]3C(F)(F)F)cc2F)C(=O)O)c2c1OCCC2 [Example 130] | 0.341
Cc1nc(-c2ccc(C[C@H](NC(=O)c3c(F)cc(N4CC[C@@H]4C(F)(F)F)cc3F)C(=O)O)c3c2OCCC3)c(=O)n(C)c1C [Example 131] | 1.56
Cn1ncc(C(F)(F)F)c(-c2ccc(C[C@H](NC(=O)c3c(F)cc(N4CCOC[C@@H]4C(F)(F)F)cc3F)C(=O)O)c3c2OCCC3)c1=O [Example 132] | 0.193
Cn1nc(C(F)(F)F)cc(-c2ccc(C[C@H](NC(=O)c3c(F)cc(N4CCOC[C@@H]4C(F)(F)F)cc3F)C(=O)O)c3c2OCCC3)c1=O [Example 133] | 1.42
Cc1cc(N2CCOC[C@@H]2C(F)(F)F)cc(F)c1C(=O)N[C@@H](Cc1ccc(-c2c(C)ncn(C)c2=O)c2c1CCCO2)C(=O)O [Example 134] | 0.374
Cc1cc(N2CCOC[C@@H]2C(F)(F)F)cc(F)c1C(=O)N[C@@H](Cc1ccc(-c2c(C(F)(F)F)cc(C)n(C)c2=O)c2c1CCCO2)C(=O)O [Example 135] | 0.094
Cc1nc(-c2ccc(C[C@H](NC(=O)c3c(F)cc(N4C[C@H]5C[C@H]5[C@@H]4C(F)(F)F)cc3F)C(=O)O)c3c2OCCC3)c(=O)n(C)c1C [Example 138] | 0.964
Cc1cc(N2CCOC3(CC3)C2)cc(F)c1C(=O)N[C@@H](Cc1ccc(-c2nc(C)c(C)n(C)c2=O)c2c1CCCO2)C(=O)O [Example 139] | 2
COc1ccc(C)nc1-c1ccc(C[C@H](NC(=O)c2c(F)cc(N3CCOC[C@@H]3C(F)(F)F)cc2F)C(=O)O)c2c1OCCC2 [Example 140] | 0.55
Cc1c(Cl)cc(-c2ccc(C[C@H](NC(=O)c3c(F)cc(N4CCOC[C@@H]4C(F)(F)F)cc3F)C(=O)O)c3c2OCCC3)c(=O)n1C [Example 141] | 0.529

Compound | EC50 [nM]
Cc1cc(N2CCOC[C@@H]2C(F)(F)F)cc(F)c1C(=O)N[C@@H](Cc1ccc(-c2cc(Cl)c(C)n(C)c2=O)c2c1CCCO2)C(=O)O [Example 142] | 0.25
Cc1nc(-c2ccc(C[C@H](NC(=O)c3c(F)cc(N4CCC(F)(F)C[C@H]4C(F)(F)F)cc3F)C(=O)O)c3c2OCCC3)c(=O)n(C)c1C [Example 143] | 4.72
Cc1nc(-c2ccc(C[C@H](NC(=O)c3c(F)cc(N4CCC(F)(F)C[C@@H]4C(F)(F)F)cc3F)C(=O)O)c3c2OCCC3)c(=O)n(C)c1C [Example 144] | 0.552
Cc1cc(N2CCOC[C@@H]2C(F)(F)F)cc(F)c1C(=O)N[C@@H](Cc1ccc(-c2c(N3CCC3)cc(C)n(C)c2=O)c2c1CCCO2)C(=O)O [Example 145] | 0.714
Cc1cc(N2CCOC[C@@H]2C(F)(F)F)cc(F)c1C(=O)N[C@@H](Cc1ccc(-c2c(C)c(C(F)(F)F)cn(C)c2=O)c2c1CCCO2)C(=O)O [Example 146] | 0.416
Cc1cc(N2CCOC[C@@H]2C(F)(F)F)cc(F)c1C(=O)N[C@@H](Cc1ccc(-c2cc(N(C)C)c(C)n(C)c2=O)c2c1CCCO2)C(=O)O [Example 147] | 2.42
Cc1cc(-c2ccc(C[C@H](NC(=O)c3c(F)cc(N4CCOC[C@@H]4C(F)(F)F)cc3F)C(=O)O)c3c2OCCC3)c(=O)n(C)n1 [Example 148] | 0.76
Cc1cc(N2CCCC[C@@H]2C(F)(F)F)cc(F)c1C(=O)N[C@@H](Cc1ccc(-c2nc(C)c(C)n(C)c2=O)c2c1CCCO2)C(=O)O [Example 149] | 0.715
Cc1nc(-c2ccc(C[C@H](NC(=O)c3c(F)cc(N4CCOC[C@@H]4C(F)(F)F)cc3Cl)C(=O)O)c3c2OCCC3)c(=O)n(C)c1C [Example 150] | 0.14
Cc1cc(N2CCOC[C@@H]2C(F)(F)F)cc(F)c1C(=O)N[C@@H](Cc1ccc(-c2c(C)c(C)c(C)n(C)c2=O)c2c1CCCO2)C(=O)O [Example 151] | 0.144
Cc1c(C)c(C)n(C)c(=O)c1-c1ccc(C[C@H](NC(=O)c2c(F)cc(N3CCOC[C@@H]3C(F)(F)F)cc2F)C(=O)O)c2c1OCCC2 [Example 154] | 0.358
Cc1cc(N2CCOC[C@@H]2C(F)(F)F)cc(F)c1C(=O)N[C@@H](Cc1ccc(-c2cc(C)c(C)n(C)c2=O)c2c1CCCO2)C(=O)O [Example 155] | 0.358
Cc1nc(-c2ccc(C[C@H](NC(=O)c3c(F)cc(N4CCCC[C@@H]4C(F)(F)F)cc3F)C(=O)O)c3c2OCCC3)c(=O)n(C)c1C [Example 156] | 0.84
Cc1nc(-c2ccc(C[C@H](NC(=O)c3c(F)cc(N4CCO[C@@H](C)C4)cc3F)C(=O)O)c3c2OCCC3)c(=O)n(C)c1C [Example 157] | 1.82
C=C1COCCN(c2cc(F)c(C(=O)N[C@@H](Cc3ccc(-c4nc(C)c(C)n(C)c4=O)c4c3CCCO4)C(=O)O)c(F)c2)C1 [Example 158] | 0.502
Cc1cc(C)n(C)c(=O)c1-c1ccc(C[C@H](NC(=O)c2c(F)cc(N3CCOC[C@@H]3C(F)(F)F)cc2Cl)C(=O)O)c2c1OCCC2 [Example 159] | 0.226
Cc1cc(N2CCOC[C@@H]2C(F)(F)F)cc(F)c1C(=O)N[C@@H](Cc1ccc(-c2c(C)cc(C)n(C)c2=O)c2c1CCCO2)C(=O)O [Example 160] | 0.189
Cc1cc(C)n(C)c(=O)c1-c1ccc(C[C@H](NC(=O)c2c(F)cc(N3CCOC[C@@H]3C(F)(F)F)cc2F)C(=O)O)c2c1OCCC2 [Example 161] | 0.364
Cc1cc(-c2ccc(C[C@H](NC(=O)c3c(F)cc(N4CCOC[C@@H]4C(F)(F)F)cc3F)C(=O)O)c3c2OCCC3)c(=O)n(C)c1C [Example 162] | 0.78

— US20220226337A1 (Gilead Sciences, Inc., priority 2018, published 2022)
